System: human mesenchymal stem cells
Test: Introduction of increased amount of GFP mRNA (20 pg/cell), yield of GFP-positive cells
Type: cell-based
Conditions: JSH-23 1 μM, versus 20 pg/cell without JSH-23
Description: Human mesenchymal stem cells were seeded in a 6-well plate to be about 10,000 cells/cm^2. As a culture solution, αMEM (+10% serum) supplemented with 1 μM of JSH-23 or αMEM (+10% serum) supplemented with 0.1% (v/v) DMSO instead of JSH-23 was used.
A lipofection solution was prepared by adding Lipofectamine RNAiMAX and fluorescent protein GFP mRNA to OptiMEM. It was prepared so that the amount of mRNA was 10 pg/cell or 20 pg/cell. The prepared lipofection solution was mixed well according to the manufacturer's recommended protocol and allowed to stand at room temperature for about 15 minutes.
Next, a lipofection solution prepared so that the amount of mRNA was 20 pg/cell was added to a plate that used, as a culture solution, αMEM (+10% serum) supplemented with DMSO or JSH-23, respectively. […]
Twenty-four hours after the final introduction of genes, the cells were detached with a cell detachment solution, centrifuged at 600×g for 5 minutes using a centrifuge, to collect the cells. The collected cells were counted using a hemocytometer. Furthermore, the GFP-positive percentage of the collected cells was measured using a flow cytometer. The yield of the number of GFP-positive cells was calculated from the number of cells counted and the GFP-positive percentage.

In the case of `Cc1ccc(NCCCc2ccccc2)c(N)c1` [JSH-23], the “number of GFP-positive cells” value is reported as “increased”.

From patent publication US20250327032A1, “AGENT FOR AVOIDING IMMUNE RESPONSE OF TRANSGENIC CELLS” (HYPERION DRUG DISCOVERY CO., LTD., priority 2021, published 2025)
